Tests used:
human MR = target: T1, human MR (Homo sapiens, UniProt P08235); experiment: hMR competitive antagonist assay (Schild analysis); assay type: cell-based; settings: Schild analysis versus aldosterone, HEK293 transfected with human MR
T1 construct: expressed in transfected cells; host or cells: HEK293
T1 sequence (P08235 1-984): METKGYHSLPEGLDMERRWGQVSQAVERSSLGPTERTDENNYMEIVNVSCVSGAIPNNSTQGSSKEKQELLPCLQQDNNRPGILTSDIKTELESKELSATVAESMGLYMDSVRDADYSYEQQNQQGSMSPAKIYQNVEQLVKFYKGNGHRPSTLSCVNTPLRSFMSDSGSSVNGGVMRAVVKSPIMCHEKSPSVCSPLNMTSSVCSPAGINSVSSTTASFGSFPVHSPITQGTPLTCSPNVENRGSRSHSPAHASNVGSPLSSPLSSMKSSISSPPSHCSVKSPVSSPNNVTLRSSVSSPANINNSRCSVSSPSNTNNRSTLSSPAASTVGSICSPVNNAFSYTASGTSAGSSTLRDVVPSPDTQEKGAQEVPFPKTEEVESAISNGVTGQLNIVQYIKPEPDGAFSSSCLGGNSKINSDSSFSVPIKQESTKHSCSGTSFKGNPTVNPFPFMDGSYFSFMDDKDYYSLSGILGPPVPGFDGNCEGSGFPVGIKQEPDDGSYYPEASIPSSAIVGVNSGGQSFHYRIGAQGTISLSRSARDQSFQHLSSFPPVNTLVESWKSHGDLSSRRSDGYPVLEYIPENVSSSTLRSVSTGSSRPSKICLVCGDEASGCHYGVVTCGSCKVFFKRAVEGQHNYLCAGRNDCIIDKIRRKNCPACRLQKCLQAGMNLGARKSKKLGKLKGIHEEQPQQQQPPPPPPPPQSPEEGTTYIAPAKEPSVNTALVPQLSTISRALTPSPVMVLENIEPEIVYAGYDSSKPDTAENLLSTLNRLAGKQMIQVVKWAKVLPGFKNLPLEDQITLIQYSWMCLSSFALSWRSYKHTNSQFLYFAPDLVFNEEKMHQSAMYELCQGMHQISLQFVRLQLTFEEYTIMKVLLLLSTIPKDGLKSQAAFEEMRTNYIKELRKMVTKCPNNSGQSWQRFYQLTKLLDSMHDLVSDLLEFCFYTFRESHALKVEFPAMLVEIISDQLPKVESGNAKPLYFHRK
Description: Human embryonic kidney HEK293 cells are transfected with human MR using the same transfection reagents, plasmids, promoters, reporter constructs, buffers, and procedures as described above for the Nuclear Hormone Receptor Panel Screen.

[1] = target: T2, human GR (glucocorticoid receptor) (Homo sapiens, UniProt P04150); experiment: Steroid nuclear hormone receptor binding assay, GR; settings: [3H]-dexamethasone, HEK293 lysate overexpressing human GR
T2 construct: expressed in transfected cells; host or cells: HEK293 (293-GR lysate)
T2 sequence (P04150 1-777): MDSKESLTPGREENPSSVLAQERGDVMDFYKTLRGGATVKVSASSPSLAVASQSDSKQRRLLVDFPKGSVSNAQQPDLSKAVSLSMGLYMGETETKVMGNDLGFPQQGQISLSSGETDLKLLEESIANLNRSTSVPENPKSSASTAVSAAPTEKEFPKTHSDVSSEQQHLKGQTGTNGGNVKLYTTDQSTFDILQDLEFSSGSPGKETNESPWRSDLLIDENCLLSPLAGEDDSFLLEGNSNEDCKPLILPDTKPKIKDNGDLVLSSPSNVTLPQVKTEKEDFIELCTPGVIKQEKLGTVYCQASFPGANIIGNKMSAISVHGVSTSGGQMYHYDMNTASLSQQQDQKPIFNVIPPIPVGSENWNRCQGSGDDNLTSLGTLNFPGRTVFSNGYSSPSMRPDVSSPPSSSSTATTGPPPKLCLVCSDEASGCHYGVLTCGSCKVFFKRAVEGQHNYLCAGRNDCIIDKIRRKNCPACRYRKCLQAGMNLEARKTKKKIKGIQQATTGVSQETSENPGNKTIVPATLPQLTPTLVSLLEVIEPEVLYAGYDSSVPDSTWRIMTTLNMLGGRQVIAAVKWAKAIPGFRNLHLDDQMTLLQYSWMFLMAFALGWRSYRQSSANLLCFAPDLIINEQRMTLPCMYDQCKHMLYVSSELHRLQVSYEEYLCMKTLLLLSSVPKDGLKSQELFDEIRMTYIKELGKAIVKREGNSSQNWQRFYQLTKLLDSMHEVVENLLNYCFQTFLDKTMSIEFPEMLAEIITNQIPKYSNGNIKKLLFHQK
Method: Cell lysates from human embryonic kidney HEK293 cells overexpressing human MR (mineralocorticoid receptor), GR (glucocorticoid receptor), AR (androgen receptor), or PR (progesterone receptor) are used for receptor-ligand competition binding assays to determine Ki values.
Briefly, steroid receptor competition binding assays are run in a buffer containing 20 mM HEPES buffer (pH=7.6), 0.2 mM EDTA, 75 mM NaCl, 1.5 mM MgCl2, 20% glycerol, 20 mM sodium molybdate, 0.2 mM DTT (dithiothreitol), 20 μg/mL aprotinin and 20 μg/mL leupeptin (assay buffer). Typically, steroid receptor binding assays include radio-labeled ligands, such as 0.25 nM [^3H]-aldosterone for MR binding, 0.7 nM [^3H]-dexamethasone for GR binding, 0.36 nM [^3H]-methyltrienolone for AR binding, and 0.29 nM [^3H]-methyltrienolone for PR binding, and either 20 μg 293-MR lysate, 20 μg 293-GR lysate, 22 μg 293-AR lysate, or 40 μg 293-PR lysate per well. Assays are typically run in 96-well format. Competing test compounds are added at various concentrations ranging from about 0.01 nM to 10 μM. Non-specific binding is determined in the presence of 500 nM aldosterone for MR binding, 500 nM dexamethasone for GR binding, or 500 nM methyltrienolone for AR and PR binding. […] After an incubation of 2 hours, plates are read in a Wallac Microbeta counter. […]

Kb (human MR): ~5.1 nM | Ki [1]: ~669 nM
Compound: O=c1[nH]c2cc(/C=C3\c4ccccc4COc4cc(F)ccc43)ccc2n1[C@@H]1C[C@@H]2COCCN2C1 [Compound (I), 5-((E)-(3-fluorodibenzo[b,e]oxepin-11(6H)-ylidene)methyl)-1-((7R,8aR)-hexahydro-1H-pyrrolo[2,1-c][1,4]oxazin-7-yl)-1H-benzo[d]imidazol-2(3H)-one]

From US8658638B2, “Mineralocorticoid receptor antagonist and methods of use” (priority 2009, dated 2014)
